“Also recorded” adds a separate entry of the source.
Tests used:
[1] = system: amnestic mild cognitive impairment patients; conditions: clinical study; cited from earlier work
[2] = system: Adnp^+/+ and Adnp^+/− male mice; experiment: Open field test; type: in vivo; conditions: 15 min
Procedure: FIG. 5. […] Furthermore, NAP ameliorates motor dysfunction in Adnp^+/− mice. Each male mouse (n=9-12 per group) was placed in the middle of the field and allowed to freely explore the arena for 15 min. The duration in center zone (A), and the total path traveled (B) were measured by the Ethovision XT video tracking system (Noldus Inc. Leesburg, Va.).
(§1) Experiments performed as we described in Malishkevich et al., 2015 (37) and Amram et al., Mol Psychiatry. 2016 October; 21(10):1467-76 (7). 3-6 month-old male mice were used, drug application (0.5 μg/5 μl/mouse) was once daily, for one month and then behavioral assays were initiated together with drug application. In experiments with the vehicle termed DD (NAP-benzalkonium), drug application was at 2 months of age and continued as above. Open field experiments (16, 17) and elevated plus maze evaluations (18) were carried out as before.

Adnp^+/− mice [3] = experiment: Social memory test; type: in vivo
Procedure: FIG. 3. NAP treatment increases social memory. Animal performance is shown. (A, animals were as in FIG. 2A,B; n=9-12 per group). Data are expressed as mean±SEM total time (sec) spent exploring mice designated by relative discrimination index (D2=(b−a)/(a+b); b=time sniffing novel mouse, a=time sniffing familiar mouse). An empty wire cup and a cup containing target mouse (“familiar”) were placed in the center of the right or left chamber. After 3 hours, a novel mouse was put inside the empty cup, while the other cup contained the familiar mouse. The Adnp^+/− mice spent less time in exploring the novel mouse, as compared to Adnp^+/+ mice.
as §1

Adnp^+/− mice [4] = experiment: Object recognition test; type: in vivo
Procedure: Data are expressed as mean (±SEM) total time (sec) spent exploring all objects designated by relative discrimination index (a and b-exploration of familiar and novel object, respectively) in Phase 2 (A) and Phase 3 (B). Two identical objects were presented during Phase 1 (habituation), and one of the identical objects was replaced by a novel object during Phases 2 and 3. […] (C) 2-month-old mice (n=3-4 males or 6-8 females per experimental group) were treated daily, five times a week for 6 weeks with 0.5 μg NAP/mouse/day by intranasal administration in DD=7.5 mg/ml of NaCl, 1.7 mg/ml of citric acid monohydrate, 3 mg/ml of disodium phosphate dihydrate, and 0.2 mg/ml of 50% benzalkonium chloride solution. Animal performance in the object recognition test after four week treatment is shown. Data are expressed as mean (±SEM) as above, in the long retention choice phase (24 hours after habituation).
as §1
Animal performance in the object recognition memory test is shown. Two identical objects were presented during the habituation phase, and one of the identical objects was replaced by a novel object during the short retention choice phase (3 hours) and the long retention choice phase (24 hours).

[5] = system: microtubule end binding protein 1 and 3 (EB1 and EB3) comets in living N1E-115; experiment: Live imaging of EB1/EB3 comets in N1E-115 cells carrying ADNP mutations; type: cell-based; conditions: p.Tyr719*/p.Lys404Valfs*31 ADNP, 4 hours NAP treatment (10^−12M)
Description: FIG. 10: NAP ameliorates cytoskeletal deficiencies associated with ADNP mutations. Human ADNP mutated cDNA was cloned into plasmids as described (Ivashko-Pachima et al., Molecular Psychiatry 2017, in press). The mutations cloned included the p.Tyr719* ADNP, the most common ADNP mutation (Gozes et al., Frontiers in Endocrinology, under revisions) and the p.Lys408Valfs31*, the first de novo ADNP mutation identified (reviewed in Gozes et al., J Mol Neurosci (2015) 56:751-757.
The effects of ADNP carried p.Tyr719*/p.Lys404Valfs*31 mutation on microtubule end binding protein 1 and 3 (EB1 and EB3) comets in living N1E-115 is shown. For experimental details see, Ivashko-Pachima et al., Molecular Psychiatry 2017, in press. (A) Live imaging of N1E-115 cells. EB1-RFP (red) co-transfected with full ADNP/p.Tyr719*/p.Lys404Valfs*31 carrying plasmids before and after 4 hours NAP treatment (10^−12M) (panel A1). […] (B-C) EB1 Quantification of average track length, comet speed, comet length and number of comets/100 μm^2 (total number of comets: ADNP (full) before treatment n=2639/1 I cells, ADNP (full) after NAP treatment n=3107/15cells, ADNP p.Tyr719* before treatment n=1910/14cells, ADNP p.Tyr719* after NAP treatment n=3990/16cells, ADNP p.Lys404Valfs*31 before treatment n=1082/6cells, ADNP p.Lys404Valfs*31 after NAP treatment n=694/5cells). […]

Akap6 [6] = experiment: Akap6 tongue gene expression, quantitative real-time PCR; type: in vivo, mice
Procedure: Tongue total RNA was extracted from 4-month-old mice (treated with NAP/DD as above) and analyzed for Akap6, Hprt, and Gapdh mRNA expression by quantitative real-time PCR (n=6-14 replicates per experimental group). HPRT and Gapdh served as normalizing transcripts.
(§2) Quantitative reverse transcription real time polymerase chain reaction (RT-PCR) was performed as before (18, 37).

Akap6 [7] = experiment: Hippocampal Akap6 mRNA expression, quantitative real-time PCR; type: in vivo; conditions: 7.5-month-old mice treated with NAP/CB, normalized to Hprt
Procedure: In females, NAP regulates genes deregulated with ADNP mutation in the hippocampus. […] Sexual dichotomy determined by t-test analysis was also observed for Akap6 and Chl1 expression between Adnp^+/− males and females (#p<0.05, ##p<0.01, ###p<0.001).
as §2

[8] = 5-month-old mice, 0.5 μg NAP/mouse/day intranasal in CB, 8 weeks, NAP vs vehicle p<0.05
[9] = tongue, 4-month-old mice, NAP/DD, p<0.05

CC[C@H](C)[C@H](NC(=O)[C@H](CO)NC(=O)[C@@H](NC(=O)[C@@H]1CCCN1C(=O)[C@H](C)NC(=O)[C@@H](N)CC(N)=O)C(C)C)C(=O)N1CCC[C@H]1C(=O)N[C@@H](CCC(N)=O)C(=O)O [NAP]
cognitive scores [1]: increase in cognitive scores
duration in center zone ([2]; male mice of both genotypes, NAP-treated vs vehicle-treated p<0.05): staying longer time at the center of the field
total path traveled (slight hyperactivity of Adnp^+/− mice) ([2]; male mice): not affecting the slight hyperactivity
social memory, females (Adnp^+/− mice [3]; 2-month-old mice, 0.5 μg NAP/mouse/day intranasal in DD, 7 weeks, NAP vs vehicle p<0.05): significant difference
social memory, females (Adnp^+/− mice [3]; [8]): significant difference
social memory, males (Adnp^+/− mice [3]; [8]): significant difference
social memory (relative discrimination index novel vs familiar mouse) (Adnp^+/− mice [3]; male mice 6-9 months, NAP in CB intranasal, FIG. 3A, NAP vs vehicle p<0.001): improved social memory
relative discrimination index, long retention choice phase, females (Adnp^+/− mice [4]; 2-month-old mice, 0.5 μg NAP/mouse/day intranasal in DD, after four week treatment, p<0.05): normalizing the deficient female behavior
relative discrimination index, long retention choice phase, males (Adnp^+/− mice [4]; 2-month-old mice, 0.5 μg NAP/mouse/day intranasal in DD, n=3-4): only a trend
relative discrimination index, short retention phase (Adnp^+/− mice [4]; 2-month-old mice, NAP intranasal in DD): No differences were observed
relative discrimination index novel vs familiar object, short retention choice phase (Adnp^+/− mice [4]; 3 hours after habituation, male mice 6-9 months, NAP in CB intranasal, NAP-treated vs Adnp^+/− p<0.001): Significant differences
relative discrimination index novel vs familiar object, long retention choice phase (Adnp^+/− mice [4]; 24 hours after habituation, male mice 6-9 months, NAP in CB intranasal, NAP-treated vs Adnp^+/− p<0.001): Significant differences
changes in microtubule dynamics (EB1/EB3 comets) caused by ADNP mutations [5]: ameliorated, in part
dysregulated Akap6 expression in the tongue (Akap6 [6]; FIG. 8 C,D): amelioration
Akap6 normalized to Gapdh: vehicle Adnp^+/− female mice compared to NAP-treated Adnp^+/− mice (Akap6 [6]; tongue, 4-month-old mice, NAP/DD): significantly increased expression
Akap6 normalized to Gapdh: NAP-treated Adnp^+/− male mice compared to vehicle-treated (Akap6 [6]; [9]): significantly increased
Akap6 normalized to Hprt: vehicle Adnp^+/− male mice compared to NAP-treated Adnp^+/− mice (Akap6 [6]; [9]): significantly decreased
hippocampal Akap6 expression, females, NAP-treated vs vehicle-treated Adnp^+/− mice (Akap6 [7]): ameliorated; also recorded: significantly increased expression

— US10912819B2, “Neuroprotective peptides derived from activity-dependent neuroprotective protein for treatment of neurological diseases” (priority 2016, dated 2021)
